Several values for one entry are separate records, joined by “and”; a condition that tells them apart may be missing. Equal values may be shown once. Read-outs that look alike come from different tables or passages of the source.
Legend:
[1] = test system: active herpes labialis lesions; settings: 0.0275% gel
Source text: An additional gel concentration (0.0275%) was' used on two patients for active herpes labialis lesions.

thermal burn injuries = settings: for Height in mm of Blister / Height in mm of Swelling of Soft Tissue Surrounding Burn Site / Subjective Evaluation of Tenderness on Palpations (rated 0 to 5) / Zone of Erythema Surrounding Burn Site (mm): per burn site
[2] = test system: aphthous ulcers (canker sores); settings: 0.0067% IEP gel; aphthous stomatitis
Method: (§1) The composition of the present invention includes initial preparation of a gel base by adding 0.8% CARBOPOL 940, which is a vinyl polymer, to distilled water. This mixture was allowed to stand for several hours until the polymer was wetted and a gel was formed. This mixture then was blended by means of a ordinary high speed mixer, such as a Lightning Labmaster II until a homogenous mixture is formed. At this point, a neutralizing and emulsifying agent such as an amino alcohol was added, forming an emulsion. […] This composition then was applied topically to various types of lesions, as subsequently described. […] Propylparaben or methylparaben may be used as a preservative. For “unidose” dispensers containing only two to three drops, no preservatives are used, as it is known that preservatives in ophthalmic solutions frequently cause undesirable side effects. The term semi-synthetic water soluble polymer as used herein includes hydroxy methylcellulose or carboxy methylcellulose. Carbopol is widely available in different viscosities.

[3] = test system: herpetic stomatitis lesions (fever blisters or cold sores)
Method: as §1

[4] = 0.0045% gel, from greatest value of that burn site
[5] = 0.009% gel, from greatest value of that burn site
[6] = 0.0067% IEP gel, herpes labialis

NCCc1c[nH]cn1 [IEP, 1H-imidazole-4-ethanamine,phosphate]
Difference in lesion decay rates vs placebo gel ([1]; p<0.05): statistically significant | Standardized Decay Rate/24 hrs ([1]; per patient): 56.55 and 36.36 | Height in mm of Blister (thermal burn injuries; 0.0045% gel, 3.5 hours): 3 mm and 2 mm | Height in mm of Swelling of Soft Tissue Surrounding Burn Site (thermal burn injuries; 0.0045% gel, 3.5 hours): 1 mm | Subjective Evaluation of Tenderness on Palpations (rated 0 to 5) (thermal burn injuries; 0.0045% gel, 3.5 hours): 3 and 5 | Zone of Erythema Surrounding Burn Site (mm) (thermal burn injuries; 0.0045% gel, 3.5 hours): 8 mm and 4 mm | Height in mm of Blister (thermal burn injuries; 0.0045% gel, 8 hours): 2.5 mm and 1.5 mm | Height in mm of Swelling of Soft Tissue Surrounding Burn Site (thermal burn injuries; 0.0045% gel, 8 hours): 1 mm | Subjective Evaluation of Tenderness on Palpations (rated 0 to 5) (thermal burn injuries; 0.0045% gel, 8 hours): 2 and 4 | Zone of Erythema Surrounding Burn Site (mm) (thermal burn injuries; 0.0045% gel, 8 hours): 6 mm and 3 mm | Height in mm of Blister (thermal burn injuries; 0.0045% gel, 22 hours): 1.5 mm and 1 mm | Subjective Evaluation of Tenderness on Palpations (rated 0 to 5) (thermal burn injuries; 0.0045% gel, 22 hours): 2 and 4 | % Reduction in Tissue Damage at 22 Hours: Height of Blister (thermal burn injuries; [4]): 50.0% | % Reduction in Tissue Damage at 22 Hours: Swelling of Surrounding Tissue (thermal burn injuries; [4]): 100.0% and 50.0% | % Reduction in Tissue Damage at 22 Hours: Zone of Erythema (mm) (thermal burn injuries; [4]): 66.7% and 81.3% | Height in mm of Blister (thermal burn injuries; 0.009% gel, 3.5 hours): 2 mm | Height in mm of Swelling of Soft Tissue Surrounding Burn Site (thermal burn injuries; 0.009% gel, 3.5 hours): 1 mm | Subjective Evaluation of Tenderness on Palpations (rated 0 to 5) (thermal burn injuries; 0.009% gel, 3.5 hours): 2 and 3 | Zone of Erythema Surrounding Burn Site (mm) (thermal burn injuries; 0.009% gel, 3.5 hours): 6 mm and 4 mm | Height in mm of Blister (thermal burn injuries; 0.009% gel, 8 hours): 1 mm | Height in mm of Swelling of Soft Tissue Surrounding Burn Site (thermal burn injuries; 0.009% gel, 8 hours): 0 mm | Subjective Evaluation of Tenderness on Palpations (rated 0 to 5) (thermal burn injuries; 0.009% gel, 8 hours): 2 | Zone of Erythema Surrounding Burn Site (mm) (thermal burn injuries; 0.009% gel, 8 hours): 4 mm and 3 mm | Height in mm of Swelling of Soft Tissue Surrounding Burn Site (thermal burn injuries; 0.009% gel, 22 hours): 0 mm | Subjective Evaluation of Tenderness on Palpations (rated 0 to 5) (thermal burn injuries; 0.009% gel, 22 hours): 1 | Zone of Erythema Surrounding Burn Site (mm) (thermal burn injuries; 0.009% gel, 22 hours): 2 mm | % Reduction in Tissue Damage at 22 Hours: Height of Blister (thermal burn injuries; [5]): 75.0% and 100.0% | % Reduction in Tissue Damage at 22 Hours: Swelling of Surrounding Tissue (thermal burn injuries; [5]): 100.0% | % Reduction in Tissue Damage at 22 Hours: Tenderness on Palpation (thermal burn injuries; [5]): 80.0% | % Reduction in Tissue Damage at 22 Hours: Zone of Erythema (mm) (thermal burn injuries; [5]): 77.8% and 75.0% | Difference in tissue damage parameters vs placebo (thermal burn injuries; 0.009% vs placebo, p<.O1 for 3 of the 4 parameters, fourth p<0.05): highly significant | Untoward events or significant complications (thermal burn injuries; in vivo): no untoward events or significant complications | Burning, reduction after 1 app. [2]: 20% | Burning, reduction after 1 day [2]: 40% | Estimated number of applications needed to eliminate clinical symptoms [2]: 9 | Pain, reduction after 1 app. [2]: 73% | Pain, reduction after 1 day [2]: 80% | Percentage decrease in healing time compared to untreated episode [2]: 67% | Percentage of patients who experienced lesion abortion [2]: 67% | Size, reduction after 1 app. [2]: 23% | Size, reduction after 1 day [2]: 43% | Swelling, reduction after 1 app. [2]: 20% | Swelling, reduction after 1 day [2]: 50% | Burning, reduction after 1 app. [3, 6]: 63% | Burning, reduction after 1 day [3, 6]: 92% | Estimated number of applications needed to eliminate clinical symptoms [3, 6]: 5 | Itching, reduction after 1 app. [3, 6]: %60 | Itching, reduction after 1 day [3, 6]: 97% | Pain, reduction after 1 app. [3, 6]: 58% | Pain, reduction after 1 day [3, 6]: 87% | Percentage decrease in healing time compared to untreated episode [3, 6]: 49% | Percentage of patients who experienced lesion abortion [3, 6]: 60% | Size, reduction after 1 app. [3, 6]: 10% | Size, reduction after 1 day [3, 6]: 32% | Spreading, reduction after 1 app. [3, 6]: 40% | Spreading, reduction after 1 day [3, 6]: 62% | Swelling, reduction after 1 app. [3, 6]: %27 | Swelling, reduction after 1 day [3, 6]: 72% | Fraction of total patients who experienced the abortion of lesions ([3]; 0.0067% gel applied at first sensation, both treatment groups (herpes labialis and aphthous ulcers)): Approximately two-thirds
